In patent publication US9801844B2, “Methods and compositions for the treatment of cancer” (priority 2012, dated 2017):
Where “and” joins values, the source holds several entries; their conditions need not be identical. Equal values may be shown once. Read-outs that look alike come from different tables or passages of the source.

Tests used:
[1] = tested on: MDA-MB-453 Her2 overexpressing human breast cancer cells; experiment: MTT cell proliferation assay on MDA-MB-453 cells; type: cell-based; details: MDA-MB-453 cells, MTT assay; for IC50: read-out: IC50, concentration that caused 50% inhibition of cell proliferation
Experimental: Cells were exposed to increasing concentrations of agents for 96 h and the number of viable cells determined by the MTT assay.

[2] = target: Na+-K+-ATPase; experiment: Enzymatic assay of ATPase activity; type: biochemical; details: purified enzyme, in vitro; read-out: 50% inhibition, IC50 value, of Na+-K+-ATPase activity
Experimental: The enzymatic assay of ATPase (adenosine 5′-triphosphatase, EC 3.6.1.3) followed the Sigma Prod. No. A-7510 protocol (Sigma-Aldrich, St. Louis, Mo., USA). Agents (0.05 ml) were pipetted with ATPase (0.05 ml, 0.5 units/ml, Sigma-Aldrich, St. Louis, Mo., USA), mixed and equilibrated for 5 min at 37° C. Taussky-Shorr reagent (10 ml of 10% ammonium molybdate in 10 N H2SO4) was pipetted to 70 ml H2O, 5 g of ferrous sulfate heptahydrate was added, and the volume was brought to 100 ml with H2O. Test supernatant (0.5 ml) and H2O (0.5 ml) were mixed and incubated at 25° C., and the absorbance read at A660 nm.
To determine whether the Na+-K+-ATPase is involved in the mechanism of action of CA and curcumin, the ability of these agents to inhibit the in vitro activity of the purified enzyme was assayed.

[3] = tested on: MDA-MB-468 triple negative breast cancer cells; experiment: MTT cell proliferation assay on MDA-MB-468 cells; type: cell-based, human; details: Homo sapiens, MDA-MB-468, MDA-MB-468 cells, MTT assay; read-out: IC50 growth inhibition
Experimental: MDA-MB-453 (ER negative, Her2 overexpressing), MDA-MB-468 (triple negative) and MCF7 (ER positive, Her2 low) cells, HT29 (p53 positive human colon cancer cells) (ATCC, Manassas, Va.) were grown in Dulbecco's Modified Eagle's medium (DMEM) (Gibco BRL Life Technologies, Inc., Rockville, Md.) containing 10% (v/v) fetal bovine serum (FBS) (Gibco BRL) at 37° C., 5% C02. SUM 149 (Her2 overexpressing, ER low) (the gift of Dr. R. Parsons, Columbia University Medical Center, New York, N.Y.) were cultivated in Ham's F-12 medium with 10% FBS. MCF7 and MCF7/Her2-18 (MCF7 cells transfected with a full length Her2 cDNA coding region, 45-fold increase Her2) were the kind gift of Dr. Dennis Slamon (Los Angeles, Calif.). These cells were maintained in RPMI supplemented with 10% FBS plus glutamine (1%) and PSF (1%) (Gibco, Rockville Md.).
MTT assay: the MTT {3-(4,5-dimethyl-2-thiazol)-2,5-diphenyl-2H tetrazolilum bromide} (Dojindo; Tokyo, Japan) cell proliferation assay system (Roche Diagnostic, Mannheim, Germany) was used to determine the sensitivity of the various cell lines to agents. Cells were seeded at 1×10^4 cells/well in 96-well plates and allowed to attach for 24 h. The medium was replaced with fresh medium containing DMSO or compound. The cells were treated for 96 or 120 h, after which they were incubated with MTT reagents and the absorbance read at 650 and 575 nm. For cell growth assays, the data are expressed as mean+/−standard deviation. Control and treated cells were compared using the student's t-test (p<0.05).
To determine the Combination Index (CI), cells were treated with all combinations of 4 or 5 concentrations of each of the agents tested and a solvent control. The results of the MTT assay were analyzed for possible synergistic effects using the median effect principle. Variable ratios of drugs were employees and mutually exclusive equations were assumed.

[4] = tested on: SKOV3 (Her2 overexpressing) human ovarian cancer cells; experiment: MTT cell proliferation assay on SKOV3 cells; type: cell-based; details: SKOV3, 96 h
Experimental: SKOV3 (Her2 overexpressing) ovarian cancer cells (ATCC, Manassas, Va.), were grown in McCoy's media (Gibco BRL Life Technologies, Inc., Rockville, Md.) containing 10% (v/v) fetal bovine serum (FBS) (Gibco BRL) at 37° C., 5% C02, plus Penn-Strep (Sigma).
The MTT [3-(4,5-dimethyl-2-thiazol)-2,5-diphenyl-2H tetrazolilum bromide] (Dojindo; Tokyo, Japan) cell proliferation assay system (Roche Diagnostic, Mannheim, Germany) was used to determine the sensitivity of the cell lines to agents. Cells were seeded at 1×10^4 cells/well in 96-well plates and allowed to attach for 24 h. The medium was replaced with fresh medium containing DMSO or compound. The cells were treated for 96 h, after which the media was replaced with fresh media; the cells were incubated with MTT reagents and the absorbance read at 650 and 575 nm. The 650 reading was subtracted from the 575 reading to correct for background absorbance.

## O=C(O[C@@H]1Cc2c(O)cc(O)cc2O[C@@H]1c1cc(O)c(O)c(O)c1)c1cc(O)c(O)c(O)c1 [EGCG, reference compound]
[1]
  IC50, concentration that caused 50% inhibition of cell proliferation: ~100 µg/mL
  IC50: 218 µM

## O=C(/C=C/c1ccc(O)c(O)c1)O[C@H](Cc1ccc(O)c(O)c1)C(=O)O [rosmarinic acid, reference compound]
[1]; Homo sapiens
  IC50: ~56 µg/mL and ~150 µM

## COc1cc(/C=C/C(=O)CC(=O)/C=C/c2ccc(O)c(OC)c2)ccc1O [curcumin]
[1]; Homo sapiens
  IC50: 2 µg/mL and 5.4 µM
[2]
  IC50: ~2 µM
[3]
  IC50: 2.3 µg/mL and 6.2 µM

## CC(=O)O[C@@H]1C[C@@]23C[C@@]24CC[C@H](O[C@@H]2OC[C@@H](O)[C@H](O)[C@H]2O)C(C)(C)[C@@H]4CC[C@H]3[C@]2(C)C[C@@H]3O[C@]4(C[C@@H](C)[C@@H]3[C@@]12C)O[C@H](O)[C@@]1(C)O[C@@H]41 [ACT, actein, reference compound]
[4]; 5 μg/ml
  % cell proliferation: 114.4%
[4]; 10 μg/ml
  % cell proliferation: 116.1%
[4]; 15 μg/ml
  % cell proliferation: 108.0%
[4]; 20 μg/ml
  % cell proliferation: 98.1%

## Oc1ccc(C=Cc2cc(O)cc(O)c2)cc1 [resveratrol, reference compound]
[1]; Homo sapiens
  IC50: 4 µg/mL and 17.5 µM
